Test results: patent publication US9096534B2, “Pyridazinone compound and use thereof” (SUMITOMO CHEMICAL COMPANY, LIMITED, priority 2006, dated 2015)

How the values were obtained:
[1] = tested on: Lolium multiflorum; experiment: Post-emergence treatment test in dry field; type: in vivo; details: 500 g/ha; foliar spray at first to second leaf stage; 20 days after treatment; 0 = no effect, 10 = complete death
Description: A plastic cup with a diameter of 8 cm and a depth of 6.5 cm was filled with commercially available soil, onto which seeds of Lolium multiflorum were sowed, covered with soil about 0.5 cm high and then grown in a greenhouse. When the plants were grown in first to second leaf stage, a prescribed dosage of a dilute liquid formulation comprising Compound I-a-1 was sprayed to whole plants uniformly. The dilute liquid formulation was prepared by dissolving a prescribed amount of Compound I-a-1 in a dimethylformamide solution (2%) of Tween 20 (polyoxyethylene sorbitan fatty acid ester, from MP Biomedicals, Inc.) and then diluting with deionized water. The plants after treatment with the liquid formulation were grown in a greenhouse and 20 days after the treatment, the efficacy of the compound against Lolium multiflorum was visually evaluated by rating in eleven levels from 0 to 10 (assigned as 0 for no effect and 10 for complete death while values falling in between these values were rated from 1 to 9 levels accordingly).
The other present compounds and Compound A described in J. Heterocycl. Chem., vol. 42, pp. 427-435 (2005) as a comparative example were similarly tested.

[2] = tested on: Apera spica-venti; experiment: Pre-emergence treatment test in dry field; type: in vivo; details: 500 g/ha; sprayed to soil surface after sowing; three weeks after treatment; 0 = no effect, 10 = complete death
Description: A plastic container (32 cm×22 cm×8 cm in height) was filled with soil sterilized by steam, onto which seeds of Apera spica-venti were sowed and covered with soil about 0.5 cm high. A prescribed dosage of a dilute liquid formulation comprising Compound I-a-1 was sprayed to the soil surface uniformly. The dilute liquid formulation was prepared by the method similar to that in Test example 1. The plants after treatment with the liquid formulation were grown in a greenhouse and three weeks after the treatment, the efficacy of the compound against Apera spica-venti was visually evaluated by rating in eleven levels from 0 to 10 similarly to Test example 1.
The other present compounds and Compound A as a comparative example were similarly tested.

Structure (SMILES): Cc1ccccc1-c1c(O)cnn(C)c1=O [Compound A]
- efficacy against Lolium multiflorum, visually evaluated by rating in eleven levels from 0 to 10 [1]: 1
- efficacy against Apera spica-venti, visually evaluated by rating in eleven levels from 0 to 10 [2]: 1
